Laboratory results as given in patent publication US20240327385A1, “SUBSTITUTED PIPERIDINE COMPOUNDS AS RENIN INHIBITORS” (priority 2023, published 2024).

Target: human recombinant renin (Homo sapiens (Human), UniProt P00797)
Test: human renin activity inhibition (SensoLyte 520 Renin Assay Kit Fluorimetric)
Type: biochemical
Details: 30 min preincubation at 37° C., fluorescence at 530 nm after 15 min at 37° C., read-out: IC50 (nM), inhibitory effect on human renin activity
Procedure: The exemplary compounds of the disclosure were tested for their inhibitory effects on human renin activity, using a commercially available renin assay kit (SensoLyte® 520 Renin Assay Kit Fluorimetric), following the manufacture's manual.
Briefly, human recombinant renin (from the kit) was incubated with the compound of the disclosure or buffer for 30 min at 37° C. before substrate addition. Fluorescence intensity was measured at 530 nm after an incubation of 15 min at 37° C. Data was analyzed by Prism and fitted into a sigmodal curve for IC50 calculation.

Chain of human recombinant renin (P00797 67-406): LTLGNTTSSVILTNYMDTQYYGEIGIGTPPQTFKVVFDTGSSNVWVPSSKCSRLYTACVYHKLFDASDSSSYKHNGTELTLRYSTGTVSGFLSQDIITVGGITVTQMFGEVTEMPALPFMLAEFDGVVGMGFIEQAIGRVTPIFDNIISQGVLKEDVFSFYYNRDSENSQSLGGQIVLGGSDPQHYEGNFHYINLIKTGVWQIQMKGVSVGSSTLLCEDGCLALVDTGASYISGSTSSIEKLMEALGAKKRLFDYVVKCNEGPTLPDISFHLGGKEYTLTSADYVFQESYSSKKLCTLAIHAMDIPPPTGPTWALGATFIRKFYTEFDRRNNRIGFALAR

IC50 [nM] | Structure (SMILES)
1.2 | CO[C@H]1C[C@H](Nc2cc(C3CC3)cnc2C(=O)N(CC(C)C)C2CNC[C@H](c3nnc(C4CC4)o3)C2)C1 (stereo partly drawn) [Compound 23, (3S)—{N-(2-methylpropyl), N-{5-cyclopropyl-3-[3-(trans-methoxy)cyclobutyl]amino}pyridine-2-carbonyl}amino-(5R)-(5-cyclopropyl-1,3,4-oxadiazol-2-yl)-piperidine]
< 250 | CO[C@H]1C[C@H](Nc2nc(C3CC3)ncc2C(=O)N(CC(C)C)[C@@H]2CNC[C@H](C(=O)N3CCOC[C@@H]3C)C2)C1 [Compound 46, (3S)—{N-(2-methylpropyl), N-{2-cyclopropyl-3-[3-(trans-methoxy)cyclobutyl]amino}pyrimidine-5-carbonyl}amino-(5R)-[(3S)-methylmorpholine-N-carbonyl]-piperidine]
< 250 | CO[C@H]1C[C@H](Nc2cc(C3CC3)nnc2C(=O)N(CC(C)C)[C@@H]2CNC[C@H](C(=O)N3CCOC[C@@H]3C)C2)C1 [Compound 33, (3S)—{N-(2-methylpropyl), N-{6-cyclopropyl-4-[3-(trans-methoxy)cyclobutyl]amino}pyridazine-3-carbonyl}amino-(5R)-[(3S)-3-methylmorpholine-4-carbonyl]-piperidine]
1.2 | CO[C@H]1C[C@H](Nc2cc(C3CC3)cnc2C(=O)N(CC(C)C)C2CNCC(C(=O)N3CCOCC3)C2)C1 (stereo partly drawn) [Compound 18, (3S)—{N-(2-methylpropyl), N-{5-cyclopropyl-3-[3-(trans-methoxy)cyclobutyl]amino}pyridine-2-carbonyl}amino-(5R)-(morpholine-N-carbonyl)-piperidine]
1.5 | CO[C@H]1C[C@@H](Nc2cc(C3CC3)cnc2C(=O)N(CC(C)C)C2CNCC(C(=O)N3CCOCC3)C2)C1 (stereo partly drawn) [Compound 19, (3S)—{N-(2-methylpropyl), N-{5-cyclopropyl-3-[3-(cis-methoxy)cyclobutyl]amino}pyridine-2-carbonyl}amino-(5R)-(morpholine-N-carbonyl)-piperidine]
< 10 | CO[C@H]1C[C@H](Nc2cc(C3CC3)cnc2C(=O)N(CC(C)C)[C@@H]2CNC[C@H](c3nnco3)C2)C1 [Compound 40, (3S)—{N-(2-methylpropyl), N-{5-cyclopropyl-3-[3-(trans-methoxy)cyclobutyl]amino}pyridine-2-carbonyl}amino-(5R)-(1,3,4-oxadiazol-2-yl)-piperidine]
1.9 | CC(C)CN(C(=O)c1ncc(C2CC2)cc1NC1CCC1)C1CNCC(C(=O)N2CCOCC2)C1 [Compound 20, (3S)—[N-(2-methylpropyl), N-(5-cyclopropyl-3-cyclobutylamino)pyridine-2-carbonyl]amino-(5R)-(morpholine-N-carbonyl)-piperidine]
1.5 | CO[C@H]1C[C@H](Nc2nc(C(C)(C)C)ncc2C(=O)N(CC(C)C)C2CNCC(C(=O)N3CCOCC3)C2)C1 (stereo partly drawn) [Compound 17, (3S)—{N-(2-methylpropyl), N-{2-tert-butyl-3-[3-(trans-methoxy)cyclobutyl]amino}pyrimidine-5-carbonyl}amino-(5R)-(morpholine-N-carbonyl)-piperidine]
1.2 | CO[C@H]1C[C@H](Nc2cc(C3CC3)cnc2C(=O)N(CC(C)C)C2CNCC(C(=O)N3CCOC[C@H]3C)C2)C1 (stereo partly drawn) [Compound 14, (3S)—{N-(2-methylpropyl), N-{5-cyclopropyl-3-[3-(trans-methoxy)cyclobutyl]amino}pyridine-2-carbonyl}amino-(5R)-[(3R)-methylmorpholine-N-carbonyl]-piperidine]
